Entries after “also recorded” stand apart in the source; their conditions may differ.

One data set deals with goblet cells. Description: IL-13 induced goblet cell hyperplasia in Airway-on-Chip (MUC5AC staining). Type of data set: cell-based, human. An excerpt: As an exemplary immuno-modulatory compound, addition of IL-13 to an Airway-on-Chip induced changes in epithelial cell layers in the upper channel with an air interface and endothelial cells in the lower channel under media fluid flow conditions are shown. It was discovered that IL-13 added to this embodiment of Airway-on-Chip effects both the epithelial cell layer in the upper channel with an air interface and the endothelial cells in the lower channel under media flow conditions. FIG. 9A is a schematic illustration showing IL-13 in the context of an Airway-on-Chip, where IL-13 effects both epithelial cells in the upper channel with an air interface and endothelial cells in the lower channel under flow (left). […] IL-13 is added to the endothelial channel at an exemplary 100 ng/ml for an exemplary 7 days.
This hyperplasia effect can be inhibited by Tofacitinib, an inhibitor of the JAK/STAT pathway (Janus Kinase (JAK) and Signal Transducer and Activator of Transcription (STAT)).
Creation of a Th2 microenvironment through IL-13 stimulation induces an asthma-like phenotype in the Airway Chip. Exacerbation is then triggered by infecting with human rhinovirus 16. […]

The subject of data set [1] is host cells of Airway On-Chip. Description: TUNEL apoptosis staining on Airway On-Chip. Type of data set: cell-based, human. The note with it: 3 μM for 3 h at 37° C.; positive control. The protocol:
One embodiment of an Airway On-Chip was infected as described above for 2 hours and then treated 50 μg/ml tetracycline for 24 h (top and bottom channels under flow) for 24 h in order to limit bacterial replication (to avoid over-replication and cell lifting). Using this methodology, we performed longer infections on an airway chip and avoided cell death at 24 h. At 24 h, chips were fixed with 4% paraformaldehyde for 15 minutes and subsequently permeabilized with 0.25% triton in PBS. Apoptosis staining was performed following the Click-iT™ Plus TUNEL Assay for In Situ Apoptosis Detection, Alexa Fluor 647 assay: Click-iT™ Plus TUNEL Assay, Thermo Fisher Scientific Inc., 6 Nov. 2017.
The TUNEL assay is based on the incorporation of modified dUTPs by the enzyme terminal deoxynucleotidyl transferase (TdT) at the 3′-OH ends of fragmented DNA, a hallmark as well as the ultimate determinate of apoptosis. ClickiT™ Plus TUNEL assay with the Alexa Fluor™ 647 dye was utilized to detect the fragment DNA (purple), nuclei were labelled with DAPI.
Staurosporin, a prototypical ATP-competitive kinase inhibitor, was used as a positive control in this assay. […] As an additional positive control, chips were treated with 1 unit of DNAse I for 30 minutes at room temperature to induce TUNEL positive DNA strand breaks.

The test system of another data set is P. aeruginosa. The class given is cell-based, Pseudomonas aeruginosa. The note with it: lower concentrations. The protocol: Mature small airway chips at air-liquid interface (ALI) were gently washed with PBS to remove excess mucus. Cells were inoculated with 2-3×10^6 colony forming units (CFUs) in Hank's balanced salt solution (HBSS) for 2 hours. At the end of the incubation, the inoculum was removed and the cells were washed 3× with phosphate buffer saline (PBS) to remove any nonadherent bacteria. PBS was removed and cells were incubated at ALI up to 24 hours (h) under flow in the bottom channel but not in the top channel.
After an exemplary on-chip infection protocol, including removing nonadherent bacteria, a test compound was immediately added to the top (apical) and bottom (basal) channels then cells are cultured under flow using media containing the anti-microbial compound, for 24 hours. Exemplary test compound amounts are at least 0.1 μg/ml, up to 50 μg/ml, up to 100 μg/ml, up to 500 μg/ml. In one embodiment, an exemplary test compound is a drug Imipenem.
More specifically, in one embodiment of an Airway on-chip, duplicate chips were infected with PA 5919 WT or PA 5890 Mutant as described herein. Then, Imipenem was added to apical and basolateral fluids (cell media) for treatment with Imipenem at 50, 100 and 500 μg/ml for 24 hours with at least one chip without Imipenem. […] Lysates were serially diluted for CFU quantification. […]
Assay readouts: Viability of extracellular bacteria (apical sampling). […]

In data set [2] the test system is human neutrophil. Description: Neutrophil recruitment/attachment in Airway-on-Chip model of acute asthma exacerbation (HRV-16 infection, IL-13 stimulation). The class given is cell-based. The protocol: In this embodiment, an exemplary respiratory virus, e.g., Rhinovirus, was added to the upper channel of the chip, IL-13 was used to stimulate cells, and neutrophils were added to the lower channel, see, FIG. 14A.
See, FIG. 14B and FIG. 14C.
HRV-16 is represented as small green dots in the upper channel while neutrophil cells (also described as polymorphonuclear leukocytes (PMN)) are represented as large purple spots in the lower channel. […] Treatments included HRV-16 alone infected cells, IL-13 alone treated cells, HRV-16 and (+) IL-13 treated cells, HRV-16+CXCR2in (inhibitor) treated cells, and HRV-16+IL-13+CXCR2in. […] FIG. 14C is a graphical comparison showing PMN (neutrophil) cells counts as % of untreated cells and cells treated with combinations shown for IL-13, HRV, and CXCR2 (in) treatments. Quantification of neutrophil recruitment (** p<0.01; **** p<0.001).

In a further data set the test system is endothelial cells. Nature of the data set: IL-13 effects on endothelial cells of Airway-on-Chip (adhesion molecule gene and protein expression). Type of data set: cell-based, human. The text has this:
Induced gene expression for adhesion molecules was also observed after IL-13 treatment, FIG. 9C. Examples of IL-13 induced Selectins (P and E) and ICAM-1 (Intercellular Adhesion Molecule 1) and VCAM-1 (vascular cell adhesion molecule-1). Doerr, “The condition-dependent proteome.” Nat Methods. 2016 Febuary; 13(2):117.
Other compounds tested included Interleukin alpha (IL1A), Interleukin beta (IL1B), Interleukin-6 (IL6), Interleukin-8 (IL8), The chemokine (C-C motif) ligand 2 (CCL2), C-C Motif Chemokine Receptor 4 (CCR4), Protein Tyrosine Phosphatase, Receptor Type C (PTPRC), Intercellular Adhesion Molecule 1 (ICAM1), Selectin P (SELP), Selectin E (SELE), Prostaglandin-Endoperoxide Synthase 2 (PTGS2), Transforming Growth Factor Beta 1 (TGFB1), SMAD Family Member 7 (SMAD7), Complement C3 (C3), Angiotensin I Converting Enzyme (ACE), cluster of differentiation 34: CD34 antigen: CD34 molecule (CD34) and Nuclear Factor Of Activated T-Cells 4 (NFATC4).
In one embodiment, an asthma phenotype was generated using IL-13 stimulation. This stimulation led to the activation of human endothelium at 48 hours of treatment. IL-13 induces vessel (endothelial cell) wall priming as part of recruitment of immune cells. […] IL-13 100 ng/mL (right panels) vs. no treatment controls (left panels) VE-Cadherin (red), ICAM-1 (green) in the upper panels. VCAM-1 (red) VE-Cadherin (green). […]

The next data set concerns Human Airway Epithelium. Description: Cilia beating frequency on-chip. The class given is cell-based. The note with it: IL-13 stimulation.
The test system of the next data set is HRV-16. Description: HRV-16 one step growth curves in infected Airway chips treated with IL-13 or not. The class given is cell-based, human rhinovirus 16. The note with it: HRV-16 MOI=2. As to the method: An exemplary virus, Human rhinovirus 16 (HRV16: A16 or type 16, referring to a single stranded RNA virus), in capsid form, was added at a multiplicity of infection of 2 to the upper channel and incubated at 33° C. for 3 hours. Infected chips (n=3) were washed apically (upper channel) daily and replicating virus in the wash fluid was quantified. HRV16 Titer (Log 10 TCID 50/mL) vs time post infection (hours). TCID50 refers to a tissue culture infectious dose, which will infect 50% if the cells in a monolayer challenged with the viral inoculum.

Data set [3] concerns IFN-λ1, IP-10/CXCL10, IL-6 secretion. Description: Interferon, chemokine and cytokine secretion after HRV16 infection of Airway Chips. Type of data set: cell-based, human. The text has this:
HRV-16-induced interferons, chemokines and pro-inflammatory cytokines profile is altered by IL-13 treatment in the severe asthma chip as shown by high resolution, kinetic profiles of cytokine secretion. These graphs (FIG. 17A-C) show results using a method for identifying secretory phases (i.e. I, II, III, and IV) of essential inflammatory cytokines.
FIG. 17A-C HRV-16-induced interferons, chemokines and pro-inflammatory cytokines profile is altered by IL-13 treatment in one embodiment of a severe asthma on-chip. These exemplary graphs show results from high resolution, kinetic profiles of an IFN Lambda 1 response FIG. 17A; IP-10/CXCL10 FIG. 17B; IL-6 response FIG. 17C; following HRV16 infection. A severe asthma on-chip was stimulated with IL-13 (lower red line and squares) while a duplicate chip was not stimulated with IL-13 (upper blue line and circles). IL-13 treatment was over 72 hours post infection. Data represent mean±SEM of cells from three to four different donors, with one or two biological replicates (chips) per donor.
Charts show IFN-λ1 (pg/mL) and IP-10/CXCL10 (pg/mL) measured in apical and basal secretions collected at 24, 48 and 72 h post HRV16 infection comparing control, IL-13 alone, HRV-16 alone and combined treatments.
Thus, IL-13 may delay or prevent IL-6-driven resolution of HRV-induced inflammation. Charts (i.e. readouts) show IL-6 (pg/mL) and IL-8 (pg/mL) measured in apical and basal secretions collected at 24, 48 and 72 h post HRV16 infection comparing control, IL-13 alone, HRV-16 alone and combined treatments.

Data set [4] has as its system human neutrophil. Description: Neutrophil adhesion, crawling and trans-migration out of the endothelial channel, HRV-16 infected Airway-on-Chip. The class given is cell-based. The note with it: HRV-16 24 hpi. An excerpt:
Once recruited to the endothelium, neutrophil movement can be recorded and extravasation monitored as N (number) of spots vs. time (e.g. up to 300-600 seconds).
Thus, migratory cell potential, as extravasation, is identified in graphs below each of these micrographs, FIG. 15A and FIG. 15B, showing the number of white spots (N spots) counted over time for each treatment. For HRV-16 infection alone, the number of spots decreases as the cells move into the cell layer, see, FIG. 15C. […] Extravasation in general refers to the movement of white blood cells into the tissues surrounding them (e.g. leukocyte extravasation), also known as diapedesis.

On to `C[C@@H]1CCN(C(=O)CC#N)C[C@@H]1N(C)c1ncnc2[nH]ccc12` [Tofacitinib], for which the “effect on IL-13 induced goblet cell hyperplasia” value in the data set with goblet cells (IL-13+Tofacitinib) was “inhibited”.
On to `CN[C@@H]1C[C@H]2O[C@@](C)([C@@H]1OC)n1c3ccccc3c3c4c(c5c6ccccc6n2c5c31)C(=O)NC4` [Staurosporin], for which the “apoptotic cell numbers (TUNEL)” value in data set [1] is reported as “increased apoptotic cell numbers”.
Regarding `C[C@@H](O)[C@H]1C(=O)N2C(C(=O)O)=C(SCCN=CN)C[C@H]12` [Imipenem], the “permeability of airway cells to imipenem” value in the data set on P. aeruginosa is on record as “impermeable”.
For the compound “IL-13: TH2 cytokine used to stimulate an asthma-like phenotype on-chip”, the figures for the neutrophil recruitment entry in the data set with human neutrophil [2] (IL-13+HRV vs either alone) and with human neutrophil [2] (IL-13-treated chips vs non-stimulated chips) were “additive increase in neutrophil recruitment” and “increased neutrophil recruitment”, respectively. In addition, the goblet cell hyperplasia result in the data set with goblet cells (IL-13 100 ng/ml, 7 days, endothelial channel) is “induced goblet cell hyperplasia”. Moreover, in the data set on endothelial cells (IL-13 100 ng/mL, 48 hours), the “adhesion molecule (ICAM-1, VCAM-1, VE-Cadherin) protein expression, immunostaining” value was “increased adhesion molecule expression”. Besides, the “adhesion protein gene expression in endothelial cells (fold over non-treated)” value with endothelial cells (IL-13 treatment) is “up regulates adhesion proteins”. For the same compound, in the data set with Human Airway Epithelium, the cilia beating frequency result was “reduces cilia beating frequency”. Also, the “HRV infectivity (HRV-16 growth)” value in the data set with HRV-16 is reported as “does not alter HRV infectivity”. For the same compound, the “epithelial interferon response after HRV-16 infection” value in data set [3] (apical/basal secretions, 24-72 h post infection) was “impairs epithelial interferon response; also recorded: reduces HRV16-induced interferon response”. Moreover, the “kinetic profile of IFN Lambda 1, CXCL10 and IL-6 secretion” value in data set [3] (over 3 days (72 hours) post HRV16 infection) was “inhibits secretion of IFN Lambda 1, CXCL10 and IL-6”. In data set [3] (prior stimulation with IL-13, 24, 48, 72 h post infection), the “HRV16-induced IL-6 secretion” value is recorded as “inhibited”.
Regarding `CC[C@@H](Nc1c(Nc2cccc(C(=O)N(C)C)c2O)c(=O)c1=O)c1ccc(C)o1` [MK-7123], the “inhibition of relevant physiological responses (neutrophil recruitment)” value in the data set with human neutrophil [2] (CXCR2 antagonist 10 μM) is on record as “greater than 90%”. The “neutrophil attachment in the lower channel” value with human neutrophil [2] (HRV-16 infections, with or without IL-13 stimulation) was “reduced neutrophil attachment”; in the data set with human neutrophil [2] (cells stimulated with IL-13 alone) it was “increased attachment”. The neutrophil recruitment entry in the data set on human neutrophil [2] (MK-7123 10 microM, three stimulation conditions (HRV-16, IL-13, IL-13+HRV)) is on record as “inhibits neutrophil recruitment; also recorded: significantly reduced neutrophil recruitment”. Also, in the data set on human neutrophil [4] (10 microliters of CXCR2 inhibitor added to the lower channel, vs no treatment), the “adhesion of neutrophil cells on endothelial cell surfaces” value is given as “reduced adhesion of neutrophil cells”. Also, the “number of spots (neutrophil cells, N spots) counted over time (extravasation)” value in the data set with human neutrophil [4] (up to 600 seconds) is “remains about the same”. In the data set with human neutrophil [4] (severe asthma chip, 10 μM), the “neutrophil mobility (crawling) and trans-migration” value is “reduces neutrophil mobility and limits trans-migration”.

These data come from patent publication US11542476B2, “Advanced pulmonary models” (EMULATE, INC., priority 2017, dated 2023).
